One experiment deals with PI3K-AKT pathway. Nature of the experiment: In vitro ovary culture with VCD injury, Western blot of p-AKT and AKT. The conditions noted are these: PD4 mouse ovaries, 4 days in vitro culture, VCD 30 μM injury. Format: cell-based. On the procedure:
• S1. The concentrated conditioned medium was collected as described in Example 1. • S2. The solution for dissecting ovary containing 10% FBS and 1% penicillin-streptomycin was prepared in L15 medium. • S3. Ovarian culture preparation was performed. The medium of control group, VCD (30 μM) group, VCD+MSC-CM group and VCD+HA/MSC-CM group were prepared, and the embedded culture chamber was placed in 6-well plate containing 1.5 mL medium per well for 2 hours. • S4. The ovaries of postnatal day 4 (PD4) mice were isolated in freshly prepared dissecting solution under stereoscope. The surrounding tissues and ovarian capsule were gently peeled off, which should move quickly and not damage ovarian tissues. • S5. The obtained ovaries were washed three times with dissecting solution and transferred to an operation table as soon as possible. Before the ovaries were placed in the chambers of each group, the ovaries were washed three times with the corresponding medium of each group. After washing, they were placed in the middle of the culture chambers of each group and placed at intervals. The solution was changed on the second day. After 4 days of in vitro culture, the ovarian tissues were collected to extract protein. • S6. The changes of the expression of p-AKT and AKT protein were detected by Western blot.
A general note: Immunoblotting shows a protein as a band on a membrane.

The subject of experiment [1] is germ cells in mouse ovaries. In words: In vitro ovary culture with VCD injury, DDX4 immunohistochemical staining of germ cells. Format: cell-based. As to conditions: 8 days in vitro culture.

Consider 1 compound from patent US12686854B2, “Method for enhancing secretory function of mesenchymal stem cells and application thereof” (SHANDONG UNIVERSITY, priority 2020, dated 2026).

In the case of `C1CC2OC2CC1C1CO1` (stereo not drawn) [VCD, 4-vinylcyclonhexene diepoxide], the “expression level of p-AKT” value with PI3K-AKT pathway is “decreased significantly”. In addition, the ovarian volume entry in experiment [1] (VCD 30 μM) was “decreased”. Moreover, in experiment [1] (VCD 30 μM injury), the “number of germ cells (DDX4 staining)” value is “decreased significantly”.
